“And” between values parts separate entries of the source, which are not always exact repeats. Identical values can stand only once. Bounds are passed on as bounds.

Data on 17 molecules can be found in ChEMBL document CHEMBL1667856, “Efficient synthesis and biological evaluation of 1,3-benzenedicarbonyl dithioureas” (Bioorg Med Chem Lett, 2011).

Assay [1] can be described thus: Cytotoxicity against human CNE2 cells after 72 hrs by MTT assay. In kind it is functional, cell-based, CNE-2. (In general: Formazan colour is commonly taken as a measure of viable cells.)
The test system of another assay is KB. Kind of assay: Cytotoxicity against human KB cells after 72 hrs by MTT assay. Type of assay: functional, cell-based.

As for `Cc1ccccc1NC(=S)NC(=O)c1cccc(C(=O)NC(=S)Nc2ccccc2C)c1`, the IC50 in assay [1] (Homo sapiens, CNE-2, 72 h) is above 50 µM; in the assay with KB (Homo sapiens, KB, 72 h), above 50 µM.
On to `O=C(NC(=S)Nc1ccccc1C(F)(F)F)c1cccc(C(=O)NC(=S)Nc2ccccc2C(F)(F)F)c1`, for which the IC50 in assay [1] (Homo sapiens, CNE-2, 72 h) was determined as 18.5 µM; in the assay on KB (Homo sapiens, KB, 72 h) it was 26.1 µM.
Take `O=c1[nH]cc(F)c(=O)[nH]1` [FLUOROURACIL]: the IC50 in the assay on KB (Homo sapiens, KB, 72 h) stood at 15.9 µM.
As to `O=C(NC(=S)Nc1ccccc1O)c1cccc(C(=O)NC(=S)Nc2ccccc2O)c1`, the IC50 is 9.91 µM and > 50 µM in assay [1] (cne-2); 10.7 µM and > 50 µM in the assay on KB (kb).
For `O=C(NC(=S)Nc1cccc(Br)c1)c1cccc(C(=O)NC(=S)Nc2cccc(Br)c2)c1`, the IC50 was 18.6 µM in assay [1] (Homo sapiens, CNE-2, 72 h) and 15.2 µM with KB (Homo sapiens, KB, 72 h).
`O=C(NC(=S)Nc1ccc(F)cc1)c1cccc(C(=O)NC(=S)Nc2ccc(F)cc2)c1`: the IC50 was found to be 33 µM in assay [1] (Homo sapiens, CNE-2, 72 h) and 43.2 µM with KB (Homo sapiens, KB, 72 h).
For `O=C(NC(=S)Nc1ccccc1Br)c1cccc(C(=O)NC(=S)Nc2ccccc2Br)c1`, in that order: above 50 µM and 47.1 µM.
Turning to `COc1ccc(NC(=S)NC(=O)c2cccc(C(=O)NC(=S)Nc3ccc(OC)cc3)c2)cc1`, the IC50 was 30.3 µM in assay [1] (Homo sapiens, CNE-2, 72 h) and above 50 µM in the assay on KB (Homo sapiens, KB, 72 h).
Regarding `O=C(NC(=S)Nc1ccccc1)c1cccc(C(=O)NC(=S)Nc2ccccc2)c1`, the IC50 in assay [1] (Homo sapiens, CNE-2, 72 h) was above 50 µM; in the assay with KB (Homo sapiens, KB, 72 h), above 50 µM.
Take `O=C(NC(=S)Nc1ccccc1F)c1cccc(C(=O)NC(=S)Nc2ccccc2F)c1`: the concentration for half-maximal inhibition (IC50) is 38.6 µM in assay [1] (Homo sapiens, CNE-2, 72 h) and 45 µM in the assay on KB (Homo sapiens, KB, 72 h).
For `Cc1ccc(NC(=S)NC(=O)c2cccc(C(=O)NC(=S)Nc3ccc(C)cc3)c2)cc1`, the IC50 was found to be 33 µM in assay [1] (Homo sapiens, CNE-2, 72 h) and 15.3 µM with KB (Homo sapiens, KB, 72 h).
For `O=C(NC(=S)Nc1ccc(Cl)cc1)c1cccc(C(=O)NC(=S)Nc2ccc(Cl)cc2)c1` the same measures were 15.7 µM and 13.7 µM.
As to `O=C(NC(=S)Nc1ccccc1Cl)c1cccc(C(=O)NC(=S)Nc2ccccc2Cl)c1`, the IC50 is above 50 µM in assay [1] (Homo sapiens, CNE-2, 72 h) and 38.8 µM in the assay on KB (Homo sapiens, KB, 72 h).
As for `O=C(NC(=S)Nc1ccc([N+](=O)[O-])cc1)c1cccc(C(=O)NC(=S)Nc2ccc([N+](=O)[O-])cc2)c1`, the IC50 is above 50 µM in assay [1] (Homo sapiens, CNE-2, 72 h) and 35.7 µM in the assay on KB (Homo sapiens, KB, 72 h).
For `O=C(NC(=S)Nc1ccc(O)cc1)c1cccc(C(=O)NC(=S)Nc2ccc(O)cc2)c1` the same measures were 16.6 µM and 20 µM.
For `O=C(NC(=S)Nc1cccc(Cl)c1)c1cccc(C(=O)NC(=S)Nc2cccc(Cl)c2)c1`, the IC50 in assay [1] (Homo sapiens, CNE-2, 72 h) turned out to be 16.3 µM; in the assay with KB (Homo sapiens, KB, 72 h), 12 µM.
For `O=C(NC(=S)Nc1ccc(Br)cc1)c1cccc(C(=O)NC(=S)Nc2ccc(Br)cc2)c1`, the IC50 in assay [1] (Homo sapiens, CNE-2, 72 h) worked out at 32.7 µM; in the assay with KB (Homo sapiens, KB, 72 h), 23.2 µM.

Broadly, the IC50 is the midpoint of a concentration-inhibition curve. The low end stands for greater potency in that assay, the high end for weaker potency in that assay.
